Patent publication US20120135417A1, “METHODS FOR SCREENING AND IDENTIFYING COMPOUNDS” (priority 2009, published 2012)

Experiments:
Type in all cases: biochemical
[1] = system: FMN riboswitch (B. subtilis ribDEAHT operon); test: FMN riboswitch-mediated in vitro transcription termination assay, [α-33P]-ATP radiometric detection
Experimental: The FMN riboswitch within the leader sequence of the B. subtilis ribDEAHT operon was amplified by PCR from B. subtilis strain 168 (Bacillus Genetic Stock Center—designation 1A1). PCR of a B. subtilis genomic preparation is performed using Platinum® Taq DNA Polymerase High Fidelity from Invitrogen (catalog #11304-011) and the sense PCR and the antisense polyA PCR primers (SEQ ID: NO 1 and 2, or SEQ ID: NO 1 and 3, respectively, as shown in table below). […] These overhangs allow the ligation of DNA into the pCR®2.1-TOPO® vector using a TOPO TA Cloning® kit (Invitrogen catalog #K4500-01). Following transformation, colonies that contained disrupted β-galactosidase are picked and grown overnight. Correct insertion and orientation of PCR product are verified by restriction analysis and sequencing. PCR of the resulting clone is used to generate DNA sequences for use in in vitro transcription termination assays. […]
Synthetic DNA primers and a biotinylated oligo (dT) may be obtained from the Keck Foundation Biotechnology Resource Center at Yale University. […] 50 μl of Microscint™PS (PerkinElmer, catalog #6013631) are then added to wells and the plate is read in a TopCount®NXT™ microplate scintillation and luminescence counter (PerkinElmer). Other readers and counters may be also be used. […]

[2] = system: FMN riboswitch (B. subtilis ribDEAHT operon); test: FMN riboswitch-mediated in vitro transcription termination assay, RiboGreen fluorescence detection; conditions: FIG. 14; RNA binding fluorophore (RiboGreen) detection, 10 μM each rNTP, 3 mM Mg2+, 4-hour reaction
[3] = system: TPP riboswitch (B. subtilis tenA operon); test: TPP riboswitch-mediated in vitro transcription termination assay, RiboGreen fluorescence detection; conditions: FIG. 15; RNA binding fluorophore (RiboGreen) detection, 5 μM each rNTP, 2 mM Mg2+, 3-hour reaction
Experimental: In vitro plate-based transcription assay: In vitro transcription reactions are carried out at 25° C. in a total reaction volume of 50 μL. Reactions are performed in Reacti-Bind™ Streptavidin High Binding Capacity Coated 96-Well Plates (Pierce, catalog #15502) in assay buffer at a final concentration of 20 mM HEPES at pH 8.0, 60 mM KCl, 0.1 mM EDTA, and 0.005% BSA. To prepare plates, wells are washed three times with successive addition and aspiration of wash buffer containing 25 mM Tris-HCl at pH 7.4 and 150 mM NaCl. Each well is then given assay buffer, followed by addition of FMN into control wells or DMSO into test wells. Enzyme mixture containing sigma-saturated E. coli polymerase (Epicentre Biotechnologies, catolog #S90250) was then added to all wells. The reaction was initiated by the addition of a start mix containing ribonucleotides (Promega, Catalog #P1300), biotinylated oligo (dT)25, magnesium, [α-^33P]-labeled ATP and DNA sequence. […] 50 μl of Microscint™PS (PerkinElmer, catalog #6013631) are then added to wells and the plate is read in a TopCount®NXT™ microplate scintillation and luminescence counter (PerkinElmer). […]

E. coli RNA polymerase = molecular target: T1, E. coli RNA polymerase (Escherichia coli, UniProt P0A8V2); test: In vitro plate-based transcription assay, inhibition of RNA polymerase activity (radiometric); conditions: FIG. 10; 12.5 μM each rNTP, 2.5 mM Mg2+, 0.1 Unit RNA polymerase; read-out: IC50 value for inhibition of the in vitro transcription reaction
T1 construct: purchased Epicentre Biotechnologies S90250
Experimental: Synthetic DNA primers and a biotinylated oligo (dT) may be obtained from the Keck Foundation Biotechnology Resource Center at Yale University. Flavin mononucleotide (FMN) may be purchased from Fluka BioChemika (catalog #83810). [α-^33P] labeled Adenosine 5′ triphosphate was acquired from American Radiolabeled Chemicals, Inc. (catalog #ARP0131). In vitro plate-based transcription assay: In vitro transcription reactions are carried out at 25° C. in a total reaction volume of 50 μL. […] 50 μl of Microscint™PS (PerkinElmer, catalog #6013631) are then added to wells and the plate is read in a TopCount®NXT™ microplate scintillation and luminescence counter (PerkinElmer). Other readers and counters may be also be used.
The antibacterial rifampin is an RNA polymerase inhibitor (Liu, J., Feldman, P. A., Lippy, J. S., Bobkova, K., Kurilla, M. G, and Chung, T. D. Y., 2001 Analytical Biochemistry, 289, 239-245, Fujii, K., Saito, H., Tomioka, H., Mae, and T., Hosoe, K., 1995 Antimicrobial Agents and Chemotherapy, 39, 1489-1492, Morris, A. B., Brown, R. B., and Sands, M., 1993 Antimicrobial Agents and Chemotherapy 37, 1-7). Rifampin is titrated to inhibit in vitro transcription reaction and its inhibitory IC50 value is determined (FIG. 10). […]

T1 sequence (P0A8V2 whole entry): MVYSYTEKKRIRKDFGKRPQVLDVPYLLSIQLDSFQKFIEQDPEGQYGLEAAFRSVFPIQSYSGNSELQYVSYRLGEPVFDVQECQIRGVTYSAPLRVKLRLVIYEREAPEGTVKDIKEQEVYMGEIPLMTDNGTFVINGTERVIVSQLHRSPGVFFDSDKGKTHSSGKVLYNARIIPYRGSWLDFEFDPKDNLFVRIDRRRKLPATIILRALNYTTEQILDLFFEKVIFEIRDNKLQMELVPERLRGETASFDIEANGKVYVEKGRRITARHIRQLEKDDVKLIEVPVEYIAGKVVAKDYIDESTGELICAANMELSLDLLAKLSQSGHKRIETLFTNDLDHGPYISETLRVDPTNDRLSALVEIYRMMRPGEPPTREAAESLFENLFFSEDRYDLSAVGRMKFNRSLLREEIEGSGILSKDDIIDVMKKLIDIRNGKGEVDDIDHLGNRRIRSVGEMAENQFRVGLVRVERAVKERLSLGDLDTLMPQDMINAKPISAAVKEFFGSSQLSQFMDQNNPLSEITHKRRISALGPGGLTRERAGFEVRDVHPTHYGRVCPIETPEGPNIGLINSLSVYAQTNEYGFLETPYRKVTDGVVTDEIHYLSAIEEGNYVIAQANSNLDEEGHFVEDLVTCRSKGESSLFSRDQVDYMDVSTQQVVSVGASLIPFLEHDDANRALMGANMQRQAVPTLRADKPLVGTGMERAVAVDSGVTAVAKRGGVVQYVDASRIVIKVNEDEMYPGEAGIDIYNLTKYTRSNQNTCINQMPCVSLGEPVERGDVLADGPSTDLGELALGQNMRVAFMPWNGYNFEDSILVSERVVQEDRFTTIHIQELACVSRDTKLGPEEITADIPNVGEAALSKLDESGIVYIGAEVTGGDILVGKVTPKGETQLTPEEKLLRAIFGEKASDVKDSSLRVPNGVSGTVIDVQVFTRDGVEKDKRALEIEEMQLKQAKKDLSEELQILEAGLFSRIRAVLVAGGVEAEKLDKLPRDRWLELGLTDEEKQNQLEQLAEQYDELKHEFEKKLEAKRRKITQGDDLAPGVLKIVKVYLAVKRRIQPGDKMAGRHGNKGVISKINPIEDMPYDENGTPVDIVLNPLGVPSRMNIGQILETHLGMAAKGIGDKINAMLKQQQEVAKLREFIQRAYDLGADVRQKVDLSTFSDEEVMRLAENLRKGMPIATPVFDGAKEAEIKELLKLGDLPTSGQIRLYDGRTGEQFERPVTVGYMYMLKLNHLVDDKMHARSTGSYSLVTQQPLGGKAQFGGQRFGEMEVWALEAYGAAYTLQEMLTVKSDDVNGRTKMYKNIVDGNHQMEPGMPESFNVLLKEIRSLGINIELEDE
T1 sequence (P0A8T7 whole entry partner): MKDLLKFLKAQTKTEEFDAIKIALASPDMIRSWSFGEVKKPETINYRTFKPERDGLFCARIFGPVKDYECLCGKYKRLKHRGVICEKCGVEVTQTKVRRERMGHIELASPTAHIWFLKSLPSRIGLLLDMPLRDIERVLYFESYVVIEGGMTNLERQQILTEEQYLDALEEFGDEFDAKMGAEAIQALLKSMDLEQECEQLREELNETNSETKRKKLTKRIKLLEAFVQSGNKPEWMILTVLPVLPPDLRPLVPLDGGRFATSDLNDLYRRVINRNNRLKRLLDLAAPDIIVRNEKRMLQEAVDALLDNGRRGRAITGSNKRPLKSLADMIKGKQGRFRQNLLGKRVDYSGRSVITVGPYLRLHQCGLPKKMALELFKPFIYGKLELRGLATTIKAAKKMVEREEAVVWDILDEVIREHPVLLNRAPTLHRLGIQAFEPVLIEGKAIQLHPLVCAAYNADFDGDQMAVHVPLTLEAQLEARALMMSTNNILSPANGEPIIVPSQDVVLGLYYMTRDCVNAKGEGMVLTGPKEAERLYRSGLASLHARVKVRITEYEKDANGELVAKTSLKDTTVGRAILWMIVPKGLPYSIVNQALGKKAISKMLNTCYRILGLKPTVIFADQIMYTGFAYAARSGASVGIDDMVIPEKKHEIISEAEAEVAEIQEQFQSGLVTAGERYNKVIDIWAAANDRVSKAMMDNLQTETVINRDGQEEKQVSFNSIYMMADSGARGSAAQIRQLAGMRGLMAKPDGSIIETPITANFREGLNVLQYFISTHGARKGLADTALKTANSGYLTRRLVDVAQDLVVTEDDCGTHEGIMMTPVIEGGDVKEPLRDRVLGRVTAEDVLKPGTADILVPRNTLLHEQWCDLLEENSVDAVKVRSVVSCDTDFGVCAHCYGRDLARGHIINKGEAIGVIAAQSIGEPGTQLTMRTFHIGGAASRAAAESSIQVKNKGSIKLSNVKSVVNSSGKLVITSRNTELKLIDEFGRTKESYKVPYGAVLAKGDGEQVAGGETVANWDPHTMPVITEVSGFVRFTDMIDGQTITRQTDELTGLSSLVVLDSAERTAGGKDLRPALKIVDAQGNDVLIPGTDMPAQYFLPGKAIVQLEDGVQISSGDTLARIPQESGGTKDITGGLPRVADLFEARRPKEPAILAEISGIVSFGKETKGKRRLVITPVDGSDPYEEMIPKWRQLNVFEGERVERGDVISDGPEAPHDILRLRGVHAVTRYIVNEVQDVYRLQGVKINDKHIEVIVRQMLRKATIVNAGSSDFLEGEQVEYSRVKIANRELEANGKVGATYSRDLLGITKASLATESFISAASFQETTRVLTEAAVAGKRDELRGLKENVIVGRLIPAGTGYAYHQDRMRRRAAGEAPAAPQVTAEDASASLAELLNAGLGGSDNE
T1 sequence (P0A7Z4 whole entry partner): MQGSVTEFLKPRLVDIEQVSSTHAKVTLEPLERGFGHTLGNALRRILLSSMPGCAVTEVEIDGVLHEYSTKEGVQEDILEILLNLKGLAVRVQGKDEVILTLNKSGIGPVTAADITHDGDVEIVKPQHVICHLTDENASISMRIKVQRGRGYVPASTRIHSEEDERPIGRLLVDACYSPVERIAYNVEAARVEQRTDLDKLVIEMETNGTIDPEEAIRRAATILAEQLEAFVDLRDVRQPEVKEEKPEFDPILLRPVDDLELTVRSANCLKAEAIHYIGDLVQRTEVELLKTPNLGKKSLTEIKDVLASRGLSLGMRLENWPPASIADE
T1 sequence (P0A800 2-91 partner limits assumed): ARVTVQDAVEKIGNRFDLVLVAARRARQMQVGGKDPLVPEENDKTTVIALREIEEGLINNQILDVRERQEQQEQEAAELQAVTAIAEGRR
T1 sequence (P00579 whole entry partner): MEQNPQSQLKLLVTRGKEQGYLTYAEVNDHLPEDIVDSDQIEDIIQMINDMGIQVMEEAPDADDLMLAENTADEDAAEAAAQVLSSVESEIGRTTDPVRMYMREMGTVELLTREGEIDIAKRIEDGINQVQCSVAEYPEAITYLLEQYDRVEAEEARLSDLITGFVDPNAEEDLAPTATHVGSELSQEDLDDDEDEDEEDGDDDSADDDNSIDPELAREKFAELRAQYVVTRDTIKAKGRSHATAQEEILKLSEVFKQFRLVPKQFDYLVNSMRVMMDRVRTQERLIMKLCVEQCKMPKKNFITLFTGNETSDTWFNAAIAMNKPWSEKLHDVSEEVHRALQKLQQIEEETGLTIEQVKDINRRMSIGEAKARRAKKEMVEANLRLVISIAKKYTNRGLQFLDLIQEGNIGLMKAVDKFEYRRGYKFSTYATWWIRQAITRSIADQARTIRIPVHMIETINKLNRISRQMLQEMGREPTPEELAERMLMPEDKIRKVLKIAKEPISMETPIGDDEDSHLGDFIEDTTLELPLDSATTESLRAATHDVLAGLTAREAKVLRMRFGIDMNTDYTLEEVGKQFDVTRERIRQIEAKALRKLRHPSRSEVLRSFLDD

**Q.** Which results are given for `Cc1cc2nc3c(=O)[nH]c(=O)nc-3n(C[C@H](O)[C@H](O)[C@H](O)COP(=O)(O)O)c2cc1C` [FMN, Flavin mononucleotide]?
**A.** Signal (cpm) of captured polyA full-length transcript ([1]; FIG. 5A, 100 μM FMN versus no FMN, DNA sequence encoding a polyA sequence): significant decrease in signal; IC50 ([1]; FIG. 11, 12.5 μM each rNTP, 2.5 mM Mg2+, 0.1 Unit RNA polymerase, radiolabel detection): 45 nM; IC50 [2]: 116 nM

**Q.** Which IC50 [3] does the source give for `Cc1ncc(C[n+]2csc(CCOP(=O)(O)O)c2C)c(N)n1` [TMP, Thiamine monophosphate] here?
**A.** Its IC50 is greater than 25000 nM.

**Q.** `Cc1ncc(C[n+]2csc(CCO[P@](=O)(O)OP(=O)(O)O)c2C)c(N)n1` [TPP, Thiamine pyrophosphate] was tested. Which IC50 [3] did it give?
**A.** The IC50 was 170 nM.

**Q.** Which IC50 (E. coli RNA polymerase) does the source give for `CO[C@H]1/C=C/O[C@@]2(C)Oc3c(C)c(O)c4c(O)c(c(/C=N/N5CCN(C)CC5)c(O)c4c3C2=O)NC(=O)/C(C)=C\C=C\[C@H](C)[C@H](O)[C@@H](C)[C@@H](O)[C@@H](C)[C@H](OC(C)=O)[C@@H]1C` [rifampin] here?
**A.** Its IC50 is 8.2 nM.

**Q.** For `Cc1cc2nc3c(=O)[nH]c(=O)nc-3n(C[C@H](O)[C@H](O)[C@H](O)CO)c2cc1N(C)C` [roseoflavine, roseoflavin], which IC50 [2] is on record?
**A.** Its IC50 is greater than 100000 nM.
